Experimental data taken from patent publication US20260138961A1, “MODULATORS OF MITOCHONDRIAL DNA REPLICATION” (Pretzel Therapeutics, Inc., priority 2022, published 2026).

Molecular target: T1, POLγA:G848S (Homo sapiens, UniProt P54098, G848S)
T1 sequence (P54098 1-1239 G848S): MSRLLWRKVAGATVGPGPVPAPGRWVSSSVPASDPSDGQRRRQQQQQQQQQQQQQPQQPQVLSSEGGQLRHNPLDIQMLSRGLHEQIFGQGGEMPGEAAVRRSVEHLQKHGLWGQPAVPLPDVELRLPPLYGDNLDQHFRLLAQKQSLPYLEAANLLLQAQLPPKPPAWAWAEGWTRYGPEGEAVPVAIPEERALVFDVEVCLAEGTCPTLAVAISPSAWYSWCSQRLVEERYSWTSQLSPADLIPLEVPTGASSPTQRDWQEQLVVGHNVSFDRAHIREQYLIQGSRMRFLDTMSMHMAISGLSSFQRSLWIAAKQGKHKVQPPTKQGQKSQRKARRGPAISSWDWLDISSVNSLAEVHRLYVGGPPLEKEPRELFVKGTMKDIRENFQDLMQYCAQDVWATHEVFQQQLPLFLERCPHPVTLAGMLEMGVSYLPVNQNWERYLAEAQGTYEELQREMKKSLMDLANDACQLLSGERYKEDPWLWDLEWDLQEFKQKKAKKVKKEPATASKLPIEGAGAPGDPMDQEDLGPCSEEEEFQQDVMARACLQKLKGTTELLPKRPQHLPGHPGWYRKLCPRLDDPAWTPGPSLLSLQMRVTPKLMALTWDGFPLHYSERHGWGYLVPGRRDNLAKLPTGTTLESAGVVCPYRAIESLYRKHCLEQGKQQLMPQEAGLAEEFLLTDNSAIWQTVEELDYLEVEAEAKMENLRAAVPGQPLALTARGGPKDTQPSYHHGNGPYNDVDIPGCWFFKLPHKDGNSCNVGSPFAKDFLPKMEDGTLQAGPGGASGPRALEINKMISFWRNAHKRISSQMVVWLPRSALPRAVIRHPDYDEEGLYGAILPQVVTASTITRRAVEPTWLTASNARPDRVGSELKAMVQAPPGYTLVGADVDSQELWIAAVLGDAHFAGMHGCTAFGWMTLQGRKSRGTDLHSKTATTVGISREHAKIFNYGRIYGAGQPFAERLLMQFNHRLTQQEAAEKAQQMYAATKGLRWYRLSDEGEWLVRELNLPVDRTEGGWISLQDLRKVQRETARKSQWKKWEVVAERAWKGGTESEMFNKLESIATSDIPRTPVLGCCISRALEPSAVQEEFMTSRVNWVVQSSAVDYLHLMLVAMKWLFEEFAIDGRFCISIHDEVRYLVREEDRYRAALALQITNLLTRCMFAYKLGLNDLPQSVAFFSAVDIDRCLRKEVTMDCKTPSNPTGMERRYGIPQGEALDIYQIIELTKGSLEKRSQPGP
T1 sequence (Q9UHN1 1-485 partner): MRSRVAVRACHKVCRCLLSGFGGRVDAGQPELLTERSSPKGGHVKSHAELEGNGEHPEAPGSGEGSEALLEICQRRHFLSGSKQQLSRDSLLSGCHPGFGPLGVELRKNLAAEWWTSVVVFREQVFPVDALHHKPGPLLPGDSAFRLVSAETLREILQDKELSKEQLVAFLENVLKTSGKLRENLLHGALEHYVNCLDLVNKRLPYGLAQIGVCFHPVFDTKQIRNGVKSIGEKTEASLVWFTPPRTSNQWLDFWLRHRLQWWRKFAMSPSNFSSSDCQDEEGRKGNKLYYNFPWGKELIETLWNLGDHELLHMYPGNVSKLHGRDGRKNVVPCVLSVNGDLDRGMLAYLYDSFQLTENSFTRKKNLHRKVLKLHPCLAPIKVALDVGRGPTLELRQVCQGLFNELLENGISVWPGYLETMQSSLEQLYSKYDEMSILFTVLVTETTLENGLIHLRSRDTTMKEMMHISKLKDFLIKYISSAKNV
Experiment: DNA polymerization assay, POLγA:G848S mutant
Assay type: biochemical
Details: stimulation of polymerase activity, primed M13mp18 ssDNA, 37° C. 2 hours; read-out: G848S AC50

**Q.** How did the AC50 turn out when `Cc1cc(S(=O)(=O)Nc2cnn(-c3ccccc3)n2)c(C)cc1Cl` [Example 171, 4-chloro-2,5-dimethyl-N-(2-phenyl-2H-1,2,3-triazol-4-yl)benzenesulfonamide] was run?
**A.** > 10000 nM

**Q.** `Cc1cc(S(=O)(=O)Nc2csc(C(=O)N(C)CC(N)=O)n2)c(C)cc1Cl` [Example 172, N-(2-amino-2-oxoethyl)-4-((4-chloro-2,5-dimethylphenyl)sulfonamido)-N-methylthiazole-2-carboxamide] was tested. Which AC50 did it give?
**A.** > 10000 nM

**Q.** For `Cc1cc(S(=O)(=O)Nc2csc(-c3ccccn3)n2)c(C)cc1Cl` [Example 173, 4-chloro-2,5-dimethyl-N-(2-(pyridin-2-yl)thiazol-4-yl)benzenesulfonamide], which AC50 is on record?
**A.** 2000 nM

**Q.** Which AC50 does the source give for `Cc1cc(S(=O)(=O)Nc2csc(C(=O)N3CCC[C@H]3C)n2)c(C)cc1Cl` [Example 174, (R)-4-chloro-2,5-dimethyl-N-(2-(2-methylpyrrolidine-1-carbonyl)thiazol-4-yl)benzenesulfonamide] here?
**A.** 400 nM

**Q.** For `Cc1cc(S(=O)(=O)Nc2csc(C(=O)N3CCC[C@@H]3C)n2)c(C)cc1Cl` [Example 175, (S)-4-chloro-2,5-dimethyl-N-(2-(2-methylpyrrolidine-1-carbonyl)thiazol-4-yl)benzenesulfonamide], which AC50 is on record?
**A.** 1000 nM

**Q.** For `Cc1cc(S(=O)(=O)Nc2csc(-c3ccncc3)n2)c(C)cc1Cl` [Example 176, 4-chloro-2,5-dimethyl-N-(2-(pyridin-4-yl)thiazol-4-yl)benzenesulfonamide], which AC50 is on record?
**A.** 400 nM

**Q.** For `Cc1cc(S(=O)(=O)Nc2csc(C(=O)N(CC(N)=O)C3CCCC3)n2)c(C)cc1Cl` [Example 177, N-(2-amino-2-oxoethyl)-4-((4-chloro-2,5-dimethylphenyl)sulfonamido)-N-cyclopentylthiazole-2-carboxamide], which AC50 is on record?
**A.** > 100000 nM

**Q.** `Cc1cc(S(=O)(=O)Nc2csc(-n3cccn3)n2)c(C)cc1Cl` [Example 178, N-(2-(1H-pyrazol-1-yl)thiazol-4-yl)-4-chloro-2,5-dimethylbenzenesulfonamide] was tested. Which AC50 did it give?
**A.** 1000 nM

**Q.** How did the AC50 turn out when `Cc1cc(S(=O)(=O)Nc2csc(C(=O)N(CC(N)=O)C3CCCCC3)n2)c(C)cc1Cl` [Example 179, N-(2-amino-2-oxoethyl)-4-((4-chloro-2,5-dimethylphenyl)sulfonamido)-N-cyclohexylthiazole-2-carboxamide] was run?
**A.** > 10000 nM

**Q.** For `Cc1cc(S(=O)(=O)Nc2nc(-c3ccccc3)n(C)n2)c(C)cc1Cl` [Example 180, 4-chloro-2,5-dimethyl-N-(1-methyl-5-phenyl-1H-1,2,4-triazol-3-yl)benzenesulfonamide], which AC50 is on record?
**A.** > 10000 nM

**Q.** How did the AC50 turn out when `Cc1cc(S(=O)(=O)Nc2csc(-c3ccn(C)n3)n2)c(C)cc1Cl` [Example 181, 4-chloro-2,5-dimethyl-N-(2-(1-methyl-1H-pyrazol-3-yl)thiazol-4-yl)benzenesulfonamide] was run?
**A.** 700 nM

**Q.** Which AC50 does the source give for `Cc1cc(S(=O)(=O)Nc2csc(-c3cnn(C)c3)n2)c(C)cc1Cl` [Example 183, 4-chloro-2,5-dimethyl-N-(2-(1-methyl-1H-pyrazol-4-yl)thiazol-4-yl)benzenesulfonamide] here?
**A.** 500 nM

**Q.** How did the AC50 turn out when `Cc1cc2cc(NS(=O)(=O)c3cc(C)c(Cl)cc3C)ccc2[nH]1` [Example 184, 4-chloro-2,5-dimethyl-N-(2-methyl-1H-indol-5-yl)benzenesulfonamide] was run?
**A.** 24000 nM
